From patent US20100029554A1, “Composition and Methods for Treatment of Congestive Heart Failure” (Amylin Pharmaceuticals, Inc., priority 2006, published 2010)
Where a SMILES comes first, the peptide text is derived from it. Where no end group is shown, it is not given here. [ ]: non-standard residue; d: D form. Gly(octyl) = CCCCCCCC[C@H](N)C(=O)O

T1: GLP-1 receptor, endogenous in RINm5f cells (rat (RIN-m5F are called rat pancreas …, UniProt P32301 22-463))
T1 construct: whole, on cells; also called GLP-1 receptors; GLP (RIN)
T1 sequence (looked up): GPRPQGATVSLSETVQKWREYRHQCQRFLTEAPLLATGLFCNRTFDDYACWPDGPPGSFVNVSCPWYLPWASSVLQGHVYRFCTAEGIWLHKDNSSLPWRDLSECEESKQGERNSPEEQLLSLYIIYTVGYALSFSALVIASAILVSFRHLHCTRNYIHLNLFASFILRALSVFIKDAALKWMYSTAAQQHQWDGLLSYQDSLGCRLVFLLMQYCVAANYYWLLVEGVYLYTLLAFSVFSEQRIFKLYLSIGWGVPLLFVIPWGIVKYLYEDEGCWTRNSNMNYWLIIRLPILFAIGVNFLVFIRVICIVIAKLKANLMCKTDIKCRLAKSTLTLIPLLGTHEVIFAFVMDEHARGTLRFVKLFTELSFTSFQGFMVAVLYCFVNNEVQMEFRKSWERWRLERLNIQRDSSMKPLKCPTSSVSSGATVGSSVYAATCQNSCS

B1: Cmpd 5268 (peptide)
peptide: HGEGTFTSDLSKQAEEEAVRLFIEWLKNGKPKK[Gly(octyl)]RYS-OH
modifications: N-terminus assumed
SMILES: CCCCCCCC[C@H](NC(=O)[C@H](CCCCN)NC(=O)[C@H](CCCCN)NC(=O)[C@@H]1CCCN1C(=O)[C@H](CCCCN)NC(=O)CNC(=O)[C@H](CC(N)=O)NC(=O)[C@H](CCCCN)NC(=O)[C@H](CC(C)C)NC(=O)[C@H](Cc1c[nH]c2ccccc12)NC(=O)[C@H](CCC(=O)O)NC(=O)[C@@H](NC(=O)[C@H](Cc1ccccc1)NC(=O)[C@H](CC(C)C)NC(=O)[C@H](CCCNC(=N)N)NC(=O)[C@@H](NC(=O)[C@H](C)NC(=O)[C@H](CCC(=O)O)NC(=O)[C@H](CCC(=O)O)NC(=O)[C@H](CCC(=O)O)NC(=O)[C@H](C)NC(=O)[C@H](CCC(N)=O)NC(=O)[C@H](CCCCN)NC(=O)[C@H](CO)NC(=O)[C@H](CC(C)C)NC(=O)[C@H](CC(=O)O)NC(=O)[C@H](CO)NC(=O)[C@@H](NC(=O)[C@H](Cc1ccccc1)NC(=O)[C@@H](NC(=O)CNC(=O)[C@H](CCC(=O)O)NC(=O)CNC(=O)[C@@H](N)Cc1c[nH]cn1)[C@@H](C)O)[C@@H](C)O)C(C)C)[C@@H](C)CC)C(=O)N[C@@H](CCCNC(=N)N)C(=O)N[C@@H](Cc1ccc(O)cc1)C(=O)N[C@@H](CO)C(=O)O
notes: tested as C-terminal acid (-OH)

Assays:
[1] = Plasma stability; type: in vitro ADME; conditions: 20 μg/mL in plasma, 37° C., 0-5 hours
Description: To assess stability, the compound of interest is spiked into plasma at a concentration of 20 μg/mL. It is incubated at 37° C. for 0, 1, 2 3, 4, 5 hours in triplicate. At each time point, MeOH is added to a 96 well microtiter plate and then sample is added in a ratio of 1 part sample to 4 parts MeOH to quench the digestion reaction. Samples are mixed with multi-channel pipette or liquid handler. The plate is then centrifuged for 10 minutes and placed in an autosampler kept at 10° C. Samples are then injected into a mass spectrometer (API 3000, Applied Biosystems) equipped with an autosampler (Leap HTC Pal) and HPLC pumps (Shimadzu LC-10ADVP).

[2] = system: NH/Swiss mice; assay: Glucose lowering assay; type: in vivo, mouse; conditions: IP, 2 nmol/kg, change in blood glucose relative to vehicle
Description: Female NH/Swiss mice (˜8-20 weeks of age), (Harlan, Indianapolis, Ind., USA), housed 3 mice per cage, are allowed ad libitum access to food and water until the start of the experiment. At two hours prior to treatment, access to food is restricted.
At the time of treatment, the tip of the tail is pricked with a needle to obtain 1 μl blood as a “pre-treatment” control blood sample. Immediately thereafter, each mouse is injected intraperitoneally (IP) with a test sample (1 nmol/kg or 2 nmol/kg) or 200 μl vehicle (10% DMSO saline). Additional blood samples are collected at 30, 60, 120, 180, and 240 minutes after injection.
Blood glucose is measured with a glucose oxidase biosensor (OneTouch® Ultra® (LifeScan, Inc., a Johnson & Johnson Company, Milpitas, Calif.)). At each time point, the effect of the test sample is expressed as the percent change in blood glucose relative to mice injected with vehicle only. Test samples and vehicle controls are also compared to their respective “pre-treatment” controls.
Significant test sample effects are identified by ANOVA (p<0.05). Where a significant difference existed, test means are compared to the control mean with Dunnett's post test using GraphPad Prism version 4.00 for Windows, GraphPad Software, San Diego Calif. USA, www.graphpad.com).

[3] = system: GLP/GIP/CT cyclase, RIN-m5F cells; assay: GLP/GIP/CT Cyclase (RIN) assay; type: cell-based, rat; conditions: cAMP, values without **
Description: GLP/GIP/CT Cyclase (RIN) Assay
Five μl of serially diluted peptides are transferred to the 384-well assay plate. Rat pancreas insulinoma cells (RIN-m5F) are detached from a tissue culture flask with Versene and washed once in buffer. Then RIN-m5F cells are resusupended in buffer at 2.5×10^6 cells/ml. Then 10 μl cells (2.5×10^4 cells) are added to all wells of the assay plate and cells are stimulated at room temperature in the dark for 30 minutes. The reaction is terminated with 10 μl of lysis buffer and incubated at room temperature for 4 hrs in the dark. cAMP content is measured using Perkin Elmer AlphaScreen™ cAMP assay kit and results are read on a Perkin Elmer Fusion fluorometer. The assay is completed in 384-well plates at 25 microliter volumes.

[4] = target: T1, GLP-1 receptor, endogenous in RINm5f …; assay: 125I-GLP-1 displacement, RINm5f membranes
[5] = target: T1, GLP-1 receptor, endogenous in RINm5f …; assay: cell-based or functional assay

| Molecule | plasma stability as compared to native GLP-1 [1] | plasma stability as compared to native GLP-1 ([1]; second, narrower list of b152) | GLU LOWERING AUC240 @2 nmol/kg [2] [%] | EC50 [3] [nM] | IC50 [4] [nM] | cAMP, CYCLASE GLP/GIP/CT (RIN) EC50 [5] [nM] |
| --- | --- | --- | --- | --- | --- | --- |
| CC[C@H](C)[C@H](NC(=O)[C@H](Cc1ccccc1)NC(=O)[C@H](CC(C)C)NC(=O)[C@H](CCCNC(=N)N)NC(=O)[C@H](C)NC(=O)[C@H](C)NC(=O)[C@H](CCC(=O)O)NC(=O)[C@H](CCC(=O)O)NC(=O)[C@H](CCC(=O)O)NC(=O)[C@H](CC(C)C)NC(=O)[C@H](Cc1ccc(O)cc1)NC(=O)[C@H](CO)NC(=O)[C@H](CO)NC(=O)[C@@H](NC(=O)[C@H](CC(=O)O)NC(=O)[C@H](CC(N)=O)NC(=O)[C@@H](NC(=O)[C@H](Cc1ccc(O)cc1)NC(=O)[C@@H](NC(=O)CNC(=O)[C@H](CCC(=O)O)NC(=O)CNC(=O)[C@@H](N)Cc1c[nH]cn1)[C@@H](C)O)[C@@H](C)O)C(C)C)C(=O)N[C@@H](CCC(=O)O)C(=O)N[C@@H](Cc1c[nH]c2ccccc12)C(=O)N[C@@H](CC(C)C)C(=O)N[C@@H](CCCCN)C(=O)N[C@@H](CCC(N)=O)C(=O)NCC(=O)NCC(=O)N1CCC[C@H]1C(=O)N[C@@H](CO)C(=O)N[C@@H](CO)C(=O)NCC(=O)N[C@@H](C)C(=O)N1CCC[C@H]1C(=O)N1CCC[C@H]1C(=O)N1CCC[C@H]1C(=O)N[C@@H](CO)C(N)=O [Cmpd 5182] | increased plasma stability | increased plasma stability | −16 | – | – | – |
| HGEGTFTSDLSKQLEEKAAKEFIEWLIQGGPSKEIIS-OH [Cmpd 5101] | increased plasma stability | increased plasma stability | −10 | 0.863 | – | – |
| CCCCCCCC[C@H](NC(=O)[C@H](CCCCN)NC(=O)[C@H](CCCCN)NC(=O)[C@@H]1CCCN1C(=O)[C@H](CCCCN)NC(=O)CNC(=O)[C@H](CC(N)=O)NC(=O)[C@H](CCCCN)NC(=O)[C@H](CC(C)C)NC(=O)[C@H](Cc1c[nH]c2ccccc12)NC(=O)[C@H](CCC(=O)O)NC(=O)[C@@H](NC(=O)[C@H](Cc1ccccc1)NC(=O)[C@H](CC(C)C)NC(=O)[C@H](CCCNC(=N)N)NC(=O)[C@@H](NC(=O)[C@H](C)NC(=O)[C@H](CCC(=O)O)NC(=O)[C@H](CCC(=O)O)NC(=O)[C@H](CCC(=O)O)NC(=O)[C@H](C)NC(=O)[C@H](CCC(N)=O)NC(=O)[C@H](CCCCN)NC(=O)[C@H](CO)NC(=O)[C@H](CC(C)C)NC(=O)[C@H](CC(=O)O)NC(=O)[C@H](CO)NC(=O)[C@@H](NC(=O)[C@H](Cc1ccccc1)NC(=O)[C@@H](NC(=O)CNC(=O)[C@H](CCC(=O)O)NC(=O)CNC(=O)[C@@H](N)Cc1c[nH]cn1)[C@@H](C)O)[C@@H](C)O)C(C)C)[C@@H](C)CC)C(=O)N[C@@H](CCCNC(=N)N)C(=O)N[C@@H](Cc1ccc(O)cc1)C(=O)N[C@@H](CO)C(=O)O [Cmpd 5268] (H-HGEGTFTSDLSKQAEEEAVRLFIEWLKNGKPKK[Gly(octyl)]RYS-OH; N-terminus assumed) | – | – | −8 | 0.489 | – | – |
| CCCCCCCC[C@H](NC(=O)[C@H](CCCCN)NC(=O)[C@H](CCCCN)NC(=O)[C@@H]1CCCN1C(=O)[C@H](CCCCN)NC(=O)CNC(=O)[C@H](CC(N)=O)NC(=O)[C@H](CCCCN)NC(=O)[C@H](CC(C)C)NC(=O)[C@H](Cc1ccccc1)NC(=O)[C@H](CCC(=O)O)NC(=O)[C@@H](NC(=O)[C@H](Cc1ccccc1)NC(=O)[C@H](CC(C)C)NC(=O)[C@H](CCCNC(=N)N)NC(=O)[C@@H](NC(=O)[C@H](C)NC(=O)[C@H](CCC(=O)O)NC(=O)[C@H](CCC(=O)O)NC(=O)[C@H](CCC(=O)O)NC(=O)[C@H](CC(C)C)NC(=O)[C@H](CCC(N)=O)NC(=O)[C@H](CCCCN)NC(=O)[C@H](CO)NC(=O)[C@H](CC(C)C)NC(=O)[C@H](CC(=O)O)NC(=O)[C@H](CO)NC(=O)[C@@H](NC(=O)[C@H](Cc1ccccc1)NC(=O)[C@@H](NC(=O)CNC(=O)[C@H](CCC(=O)O)NC(=O)CNC(=O)[C@@H](N)Cc1c[nH]cn1)[C@@H](C)O)[C@@H](C)O)C(C)C)[C@@H](C)CC)C(=O)N[C@@H](CCCNC(=N)N)C(=O)N[C@@H](Cc1ccc(O)cc1)C(=O)N[C@@H](CO)C(=O)O [Cmpd 5269] | – | – | −14 | 1.31 | – | – |
| HGEGTFTSDLVKILEAEAVRKFIEFLKN-NH2 [Cmpd 5052] | – | – | – | – | 0.56 | 4.5 |
| HGEGTFTSDVTQQLEEEAVRLFIEWLKQGGPSSGAPPPS-NH2 [Cmpd 5099] | – | – | – | – | 5 | 1.29 |
| HGEGTYTNDVSSYLEGQAARLFIEWLQGGPSSGAPPPS-NH2 (also: table prints an unexplained underscore after L26) [Cmpd 5183] | – | – | – | – | 0.31 | 0.21 |
| B1 | – | – | – | – | 0.11 | 0.489 |
